# Experimental data reported in US20110158919A1, “AROMA COMPOSITION COMPRISING O-COUMARIC ACID TO REDUCE OR SUPPRESS UNDESIRABLE TASTE IMPRESSIONS OF SWEETENERS” (SYMRISE AG, priority 2009, published 2011).
# Counter-ions that a name gives are not always drawn.
# Legend:
# [1] = Stability test for OCA in a carbonated soft drink; type: physicochemical; conditions: 5000 Lux at 37° C. for 9 days
# Method: Test 2: Stability Test for OCA in a Carbonated Soft Drink A carbonated soft drink was prepared consisting of water, 10 ppm trans-o-coumaric acid, 350 ppm Rebaudioside A, 250 ppm sodium benzoate, 150 ppm potassium sorbate, 0.1 wt.-% of lemon/lime extract flavour and 0.15 wt.-% sodium citrate/citric acid. The latter was added to obtain a pH of 3.0±0.2. Said mixture was carbonated with 2.7 volumes of carbon dioxide. This PET-bottled drink was stressed with 5000 Lux at 37° C. for 9 days, thereby simulating a storage time (shelf life) of about 9 months at 20° C. At the end of the test the soft drink still contained 8 ppm of OCA, corresponding to an OCA-stability of 80% after a storage time of about 9 months.
# [2] = Solubility of homoeriodictyol salts; type: physicochemical; conditions: in words
"OCA content of the soft drink at the end of the test ([1]; 10 ppm at start, PET-bottled carbonated soft drink, pH 3.0±0.2) [ppm]",OCA-stability ([1]; simulating a storage time of about 9 months at 20° C.) [%],solubility compared with pure homoeriodictyol sodium salt [2],Compound
8,80,–,"O=C(O)/C=C/c1ccccc1O [OCA, (E)-3-(2-hydroxyphenyl)-2-propenoic acid]"
–,–,better solubility,COc1cc([C@@H]2CC(=O)c3c(O)cc(O)cc3O2)ccc1O [homoeriodictyol potassium salt]
